Experimental findings from patent US20240174637A1, “DEGRADERS OF GRK2 AND USES THEREOF” (Sonata Therapeutics, Inc., priority 2021, published 2024) are described below.

The target in experiment [1] is T1, GRK2 (Homo sapiens, UniProt P25098).
T1 sequence (P25098 1-689): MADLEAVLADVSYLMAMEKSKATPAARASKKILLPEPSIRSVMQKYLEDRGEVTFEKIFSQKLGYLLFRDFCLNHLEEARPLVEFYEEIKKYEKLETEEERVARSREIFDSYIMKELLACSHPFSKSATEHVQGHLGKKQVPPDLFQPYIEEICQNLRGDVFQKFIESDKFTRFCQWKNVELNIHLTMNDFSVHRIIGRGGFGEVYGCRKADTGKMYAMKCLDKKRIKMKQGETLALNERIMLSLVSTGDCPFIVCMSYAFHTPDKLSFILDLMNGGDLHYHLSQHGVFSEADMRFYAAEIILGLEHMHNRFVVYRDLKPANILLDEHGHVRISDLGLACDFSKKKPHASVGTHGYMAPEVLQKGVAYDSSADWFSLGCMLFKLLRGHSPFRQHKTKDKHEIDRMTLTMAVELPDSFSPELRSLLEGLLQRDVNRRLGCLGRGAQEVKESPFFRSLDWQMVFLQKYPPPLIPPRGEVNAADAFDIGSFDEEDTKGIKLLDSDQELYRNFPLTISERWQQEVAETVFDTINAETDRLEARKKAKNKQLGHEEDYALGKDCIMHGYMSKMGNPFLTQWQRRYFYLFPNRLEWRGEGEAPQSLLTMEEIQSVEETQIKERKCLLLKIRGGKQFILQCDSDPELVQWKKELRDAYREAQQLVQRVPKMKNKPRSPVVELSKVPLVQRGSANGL
Description: GRK2 Inhibition Assay (TR-FRET, Example 1). The class given is biochemical. The conditions noted are these: Table 4; Example 1 assay; read-out: Enzymatic GRK2 IC50: Av IC50 GRK2. The method in brief:
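TR-FRET phosphorylation readout: Eu anti-TopoIIα antibody with EDTA added after a 90 min RT kinase reaction of 1 nM GRK2, 7 μM ATP and 50 nM ULight-TopoIIα. Compounds were pre-incubated with enzyme 30 min at room temperature beforehand.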

The next experiment relates to PAXF1657 EV. Description: 7-day cellular proliferation assay (CellTiter-Glo), PAXF1657 EV. The format is cell-based. To be noted: proliferation, read-out: GeoMean IC50 (UM) PAXF1657 EV. The procedure, abridged: (§1)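 500 cells/well, RPMI1640 + 10% H.I. FBS, adhered overnight at 37° C. Compound 10-pt dilution, 30 μM-0.0002 μM final, 0.3% DMSO. 3 d, media + compound replaced, further 4 d. Viability by CellTiter-Glo; untreated plates read at time of dosing.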
For orientation: Cellular ATP, detected with luciferase, serves as a proxy for viable cell number.

A further experiment deals with PAXF1657 KO Clone #4. As to the kind of experiment: 7-day cellular proliferation assay (CellTiter-Glo), PAXF1657 KO Clone #4. The class given is cell-based. The conditions noted are these: proliferation, read-out: GeoMean IC50 (uM) PAXF1657 KO Clone #4. The procedure, abridged: as §1
Experiment [2] addresses T1, GRK2. As to the kind of experiment: GRK2 Degradation Assay and Western Blot in PAXF1657 cells. The format is cell-based. The conditions noted are these: for inhibition at 0.3 µM: Conc 0.3 uM; for inhibition at 0.3 µM / inhibition at 1 µM / inhibition at 3 µM: read-out: Degradation Assay - 3 point: Degradation (%); for inhibition at 1 µM: Conc 1 uM; for inhibition at 3 µM: Conc 3 uM; for DC50: PAXF1657, 24 h, read-out: Degradation Assay - Full Dose Response: IC50 (uM) [cell line: PAXF1657, time point: 24 h]. Also on record: endogenous in cells; host or cells: PAXF1657. The procedure, abridged:
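GRK2 degradation judged by immunoblot: NP40 lysates separated by SDS-PAGE and probed for GRK2 and β-actin, with HRP/ECL detection. Lysates came from PAXF1657 cells exposed to 0–10 μM compound for 6–24 h after reaching 70% confluency.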
In general terms: A western blot detects proteins with antibodies after separation by electrophoresis.

Usually IC50 stands for the midpoint of a concentration-inhibition curve. Take `C[C@@H](NC(=O)c1cccc(NCc2nnc(-c3ccncn3)n2C)c1)c1cccc(OCCCCCCOCCOCCNc2ccc3c(c2)CN(C2CCC(=O)NC2=O)C3=O)c1` (stereo partly drawn) [Compound D141, N-((1R)-1-(3-(6-(2-(2-(2-(2,6-dioxopiperidin-3-yl)-1-oxoisoindolin-5-ylamino)ethoxy)ethoxy)hexyloxy)phenyl)ethyl)-3-((4-methyl-5-(pyrimidin-4-yl)-4H-1,2,4-triazol-3-yl)methylamino)benzamide]: the IC50 on GRK2 [1] worked out at 19.5 nM. Further, the IC50 in the experiment with PAXF1657 EV worked out at 170 nM. Moreover, in the experiment on PAXF1657 KO Clone #4, the IC50 worked out at 1.66 µM. Also, at GRK2 [2], the inhibition at 0.3 µM stood at 89%, the inhibition at 1 µM turned out to be 88%, the inhibition at 3 µM is 67% and the DC50 amounted to 8.71 µM.
Turning to `C[C@@H](NC(=O)c1cccc(NCc2nnc(-c3ccncn3)n2C)c1)c1cccc(OCCCCCCOCCOCCNc2cccc3c2CN(C2CCC(=O)NC2=O)C3=O)c1` (stereo partly drawn) [Compound D143], the IC50 on GRK2 [1] amounted to 10.4 nM. In the experiment with PAXF1657 EV, the IC50 came out at 110 nM. Besides, the IC50 with PAXF1657 KO Clone #4 came out at 5.32 µM. On GRK2 [2], the inhibition at 0.3 µM came to 88%, the inhibition at 1 µM came to 82%, the inhibition at 3 µM was 83% and the DC50 is 0.11 µM.
Turning to `C[C@@H](NC(=O)c1cccc(NCc2nnc(-c3ccncn3)n2C)c1)c1ccc(OCCCCCCOCCOCCOCCCCCC(=O)Nc2cccc3c2CN(C2CCC(=O)NC2=O)C3=O)cc1` (stereo partly drawn) [Compound D147, N-((1R)-1-(4-(6-(2-(2-(6-(2-(2,6-dioxopiperidin-3-yl)-1-oxoisoindolin-4-ylamino)-6-oxohexyloxy)ethoxy)ethoxy)hexyloxy)phenyl)ethyl)-3-((4-methyl-5-(pyrimidin-4-yl)-4H-1,2,4-triazol-3-yl)methylamino)benzamide], the half-inhibitory concentration (IC50) at GRK2 [1] was determined as 10.1 nM. The IC50 with PAXF1657 EV turned out to be 110 nM. For the same compound, the IC50 with PAXF1657 KO Clone #4 was greater than 30 µM. At GRK2 [2], the inhibition at 0.3 µM was determined as 73.8%, the inhibition at 1 µM came out at 81.6% and the inhibition at 3 µM stood at 83.1%.
Regarding `Cc1ncsc1-c1ccc(CNC(=O)[C@@H]2C[C@@H](O)CN2C(=O)[C@@H](NC(=O)CCCOCCOCCOCCCCCCCCOc2ccc([C@@H](C)NC(=O)c3cccc(NCc4nnc(-c5ccncn5)n4C)c3)cc2)C(C)(C)C)cc1` [Compound D148], the IC50 on GRK2 [1] came to 14.1 nM. Further, the IC50 with PAXF1657 EV amounted to 100 nM. Moreover, the IC50 in the experiment with PAXF1657 KO Clone #4 stood at 8.31 µM. Also, on GRK2 [2], the inhibition at 0.3 µM was 46.7%, the inhibition at 1 µM was determined as 21.2%, the inhibition at 3 µM stood at 0.218% and the DC50 was 2.57 µM.
For the compound `C[C@H](NC(=O)c1cccc(NCc2nnc(-c3ccncn3)n2C)c1)c1ccc(OCCCCCOCCCOCC(=O)Nc2cccc3c2CN(C2CCC(=O)NC2=O)C3=O)cc1` (stereo partly drawn) [Compound D150, N-((1S)-1-(4-((5-(3-(2-((2-(2,6-dioxopiperidin-3-yl)-1-oxoisoindolin-4-yl)amino)-2-oxoethoxy)propoxy)pentyl)oxy)phenyl)ethyl)-3-(((4-methyl-5-(pyrimidin-4-yl)-4H-1,2,4-triazol-3-yl)methyl)amino)benzamide], the figures for the IC50 on GRK2 [1], in the experiment with PAXF1657 EV and with PAXF1657 KO Clone #4 were greater than 1000 nM, 27700 nM and greater than 30 µM, respectively. Also, the inhibition at 0.3 µM at GRK2 [2] stood at 44%. Besides, the inhibition at 1 µM on GRK2 [2] amounted to 43%. On GRK2 [2], the inhibition at 3 µM stood at 40%.
In the case of `Cc1ncsc1-c1ccc(CNC(=O)[C@@H]2C[C@@H](O)CN2C(=O)[C@@H](NC(=O)COCCCOCCCCCOc2ccc([C@H](C)NC(=O)c3cccc(NCc4nnc(-c5ccncn5)n4C)c3)cc2)C(C)(C)C)cc1` [Compound D151], the IC50 on GRK2 [1] was greater than 1000 nM; with PAXF1657 EV, 300 nM; in the experiment on PAXF1657 KO Clone #4, 9.65 µM. Further, the inhibition at 0.3 µM at GRK2 [2] was 56%. Moreover, the inhibition at 1 µM at GRK2 [2] was found to be 58%. Moreover, the inhibition at 3 µM on GRK2 [2] stood at 34%.
In the case of `C[C@H](NC(=O)c1cccc(NCc2nnc(-c3ccncn3)n2C)c1)c1ccc(OCCCCCCOCCOCCOCCCCCC(=O)Nc2cccc3c2CN(C2CCC(=O)NC2=O)C3=O)cc1` (stereo partly drawn) [Compound D152, N-((1S)-1-(4-(6-(2-(2-(6-(2-(2,6-dioxopiperidin-3-yl)-1-oxoisoindolin-4-ylamino)-6-oxohexyloxy)ethoxy)ethoxy)hexyloxy)phenyl)ethyl)-3-((4-methyl-5-(pyrimidin-4-yl)-4H-1,2,4-triazol-3-yl)methylamino)benzamide], the IC50 on GRK2 [1] was greater than 1000 nM. For the same compound, the 50% inhibitory concentration (IC50) in the experiment with PAXF1657 EV is 12700 nM. For the same compound, in the experiment on PAXF1657 KO Clone #4, the IC50 was greater than 30 µM. Moreover, at GRK2 [2], the inhibition at 0.3 µM worked out at 24%, the inhibition at 1 µM turned out to be 28% and the inhibition at 3 µM came to 38%.
Turning to `Cc1ncsc1-c1ccc(CNC(=O)[C@@H]2C[C@@H](O)CN2C(=O)[C@@H](NC(=O)CCCCCOCCOCCOCCCCCCOc2cccc([C@H](C)NC(=O)c3cccc(NCc4nnc(-c5ccncn5)n4C)c3)c2)C(C)(C)C)cc1` [Compound D153], the IC50 on GRK2 [1] worked out at 125 nM; with PAXF1657 EV it was 340 nM; in the experiment on PAXF1657 KO Clone #4, 6.82 µM. The inhibition at 0.3 µM at GRK2 [2] amounted to 10%. The inhibition at 1 µM on GRK2 [2] amounted to 12%. Besides, on GRK2 [2], the inhibition at 3 µM came out at 18%.
Take `C[C@H](NC(=O)c1cccc(NCc2nnc(-c3ccncn3)n2C)c1)c1cccc(OCCCCCCOCCOCCOCCCC(=O)Nc2cccc3c2CN(C2CCC(=O)NC2=O)C3=O)c1` (stereo partly drawn) [Compound D154, N-((1S)-1-(3-(6-(2-(2-(4-(2-(2,6-dioxopiperidin-3-yl)-1-oxoisoindolin-4-ylamino)-4-oxobutoxy)ethoxy)ethoxy)hexyloxy)phenyl)ethyl)-3-((4-methyl-5-(pyrimidin-4-yl)-4H-1,2,4-triazol-3-yl)methylamino)benzamide]: the half-inhibitory concentration (IC50) on GRK2 [1] was determined as 183 nM. The concentration for half-maximal inhibition (IC50) in the experiment with PAXF1657 EV came out at 4390 nM. Further, the IC50 in the experiment on PAXF1657 KO Clone #4 was greater than 30 µM. For the same compound, at GRK2 [2], the inhibition at 0.3 µM came out at 25.1%, the inhibition at 1 µM stood at 19.5% and the inhibition at 3 µM was 9.15%.
With `C[C@@H](NC(=O)c1cccc(NCc2nnc(-c3ccncn3)n2C)c1)c1cccc(OCCCCCOCCCOCCOc2ccc3c(c2)CN(C2CCC(=O)NC2=O)C3=O)c1` (stereo partly drawn) [Compound D160, N-((1R)-1-(3-((5-(3-(2-((2-(2,6-dioxopiperidin-3-yl)-1-oxoisoindolin-5-yl)oxy)ethoxy)propoxy)pentyl)oxy)phenyl)ethyl)-3-(((4-methyl-5-(pyrimidin-4-yl)-4H-1,2,4-triazol-3-yl)methyl)amino)benzamide], at GRK2 [1], the IC50 came out at 25 nM. The IC50 in the experiment on PAXF1657 EV was found to be 50 nM. For the same compound, in the experiment on PAXF1657 KO Clone #4, the IC50 is greater than 30 µM. Further, on GRK2 [2], the inhibition at 0.3 µM is 92%, the inhibition at 1 µM came to 87% and the inhibition at 3 µM was 83%.
As to `Cc1ncsc1-c1ccc(CNC(=O)[C@@H]2C[C@@H](O)CN2C(=O)[C@@H](NC(=O)CCCCCOCCOCCOCCCCCCOc2cccc([C@@H](C)NC(=O)c3cccc(NCc4nnc(-c5ccncn5)n4C)c3)c2)C(C)(C)C)cc1` [Compound D162], on GRK2 [1], the IC50 was 14.1 nM. In addition, the half-inhibitory concentration (IC50) in the experiment with PAXF1657 EV was 490 nM. The IC50 in the experiment with PAXF1657 KO Clone #4 amounted to 11.4 µM. Besides, at GRK2 [2], the inhibition at 0.3 µM came out at 51%, the inhibition at 1 µM is 72.7% and the inhibition at 3 µM came to 72.9%.
As for `C[C@@H](NC(=O)c1cccc(NCc2nnc(-c3ccncn3)n2C)c1)c1cccc(OCCCCCCOCCOCCOCCCC(=O)Nc2cccc3c2CN(C2CCC(=O)NC2=O)C3=O)c1` (stereo partly drawn) [Compound D163, N-((1R)-1-(3-(6-(2-(2-(4-(2-(2,6-dioxopiperidin-3-yl)-1-oxoisoindolin-4-ylamino)-4-oxobutoxy)ethoxy)ethoxy)hexyloxy)phenyl)ethyl)-3-((4-methyl-5-(pyrimidin-4-yl)-4H-1,2,4-triazol-3-yl)methylamino)benzamide], the IC50 on GRK2 [1] turned out to be 16.6 nM. The half-maximal inhibitory concentration (IC50) in the experiment on PAXF1657 EV is 370 nM. Also, the 50% inhibitory concentration (IC50) with PAXF1657 KO Clone #4 was greater than 30 µM. Further, at GRK2 [2], the inhibition at 0.3 µM was 74.4%, the inhibition at 1 µM turned out to be 81.5% and the inhibition at 3 µM came out at 89.6%.
